These results are taken from US20070037846A1, “Pyrazolidinedione derivatives” (ACTELION PHARMACEUTICALS, LTD., priority 2003, published 2007).

In general, IC50 refers to the concentration that inhibits the measured activity by half.

Each structure is given as a SMILES string.

T1 sequence (Q9H244 whole entry): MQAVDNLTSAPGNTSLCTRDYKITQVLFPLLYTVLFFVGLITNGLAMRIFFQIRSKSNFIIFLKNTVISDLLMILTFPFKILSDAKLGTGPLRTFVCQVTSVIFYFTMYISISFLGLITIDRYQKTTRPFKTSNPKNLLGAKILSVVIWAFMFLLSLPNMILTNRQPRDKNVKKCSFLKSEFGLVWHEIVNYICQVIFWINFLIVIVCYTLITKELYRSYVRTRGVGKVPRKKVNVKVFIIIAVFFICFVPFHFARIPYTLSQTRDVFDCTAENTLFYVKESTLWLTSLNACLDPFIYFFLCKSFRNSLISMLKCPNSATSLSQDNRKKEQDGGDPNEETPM

This assay addresses T1, human P2Y12 receptor (Homo sapiens, UniProt Q9H244).
T1 construct: expressed in transfected cells; host or cells: CHO (Chinese Hamster Ovary) cells
Nature of the assay: P2Y12 receptor binding assay (displacement of tritium-labeled 2-methyl-S-ADP on CHO cells). Conditions: CHO cells with recombinant human P2Y12 receptor, 2 hours at room temperature. On the procedure:
The ability of the compounds of formulae (I) and (III) to bind to the P2Y12 receptor may be measured by methods similar to those described in Gachet C. et al., Br. J. Hematol. 1995, 91, 434-444 and by the method described below in Example 16.
Chinese Hamster Ovary (CHO) cells with recombinant expression of the human P2Y12 receptor were cultured in 24 well cell-culture plates. Cells were washed three times with binding buffer (50 mM Tris pH 7.4, 100 mM NaCl, 1 mM EDTA, 0.5% BSA). The cells were then incubated with 0.5 ml per well binding buffer containing tritium-labeled 2-methyl-thio-adenosine 5′-diphosphate (2-methyl-S-ADP) (between 100'000 and 300'000 dpm per well) and various concentrations of test compounds. After incubation at room temperature for 2 hours, cells were washed three times with binding buffer. Then, cells were solubilized by addition of 0.5 ml solubilization buffer (SDS, NaOH, EDTA). The content of each well was then transferred into beta-counter vials and 2.0 ml of Ultima Gold Scintillation liquid was added.
The test is conducted as described hereinabove. […] Exemplary IC50 values are given below.
Consider `CCCOc1ccc(C=C2C(=O)NN(c3ccccc3)C2=O)c(C)c1C` [Example 1, 4-(2,3-Dimethyl-4-propoxy-benzylidene)-1-phenyl-pyrazolidine-3,5-dione], for which the IC50 is 0.024 µM.

With `COc1ccc(C=C2C(=O)NN(c3ccccc3)C2=O)c(C)c1C` [Example 2a7, 4-(2,3-Dimethyl-4-methoxy-benzylidene)-1-phenyl-pyrazolidine-3,5-dione], the IC50 came out at 0.19 µM.

Consider `CCOc1ccc(C=C2C(=O)NN(c3ccccc3)C2=O)cc1C` [Example 2a12, 4-(4-Ethoxy-3-methyl-benzylidene)-1-phenyl-pyrazolidine-3,5-dione], for which the IC50 is 0.47 µM.

Turning to `CCCOc1ccc(C=C2C(=O)NN(c3ccccc3)C2=O)c2c1CCCC2` [Example 2a25, 1-Phenyl-4-(4-propoxy-5,6,7,8-tetrahydro-naphthalen-1-ylmethylene)-pyrazolidine-3,5-dione], the IC50 was determined as 0.03 µM.

For the compound `CCCOc1ccc(C=C2C(=O)NN(c3ccccc3)C2=O)c2cnccc12` [Example 2a30, 1-Phenyl-4-[1-(5-propoxy-isoquinolin-8-yl)-methylidene]-pyrazolidine-3,5-dione], the IC50 amounted to 0.01 µM.

For the compound `CCCOc1ccc(C=C2C(=O)NN(c3ccccc3)C2=O)c(OCCC)n1` [Example 2a35, 4-[1-(2,6-Dipropoxy-pyridin-3-yl)-methylidene]-1-phenyl-pyrazolidine-3,5-dione], the IC50 came out at 0.37 µM.

Consider `CCCOc1ccc(C=C2C(=O)NN(c3ccccc3)C2=O)c(OCCOC)c1C` [Example 2a39, 4-[1-[2-(2-Methoxy-ethoxy)-3-methyl-4-propoxy-phenyl]-methylidene]-1-phenyl-pyrazolidine-3,5-dione], for which the IC50 is 0.015 µM.

For the compound `CCCOc1ccc(C=C2C(=O)NN(c3ccccc3)C2=O)c(OCCCCO)c1C` [Example 2a43, 4-[1-[2-(4-Hydroxy-butoxy)-3-methyl-4-propoxy-phenyl]-methylidene]-1-phenyl-pyrazolidine-3,5-dione], the IC50 was 0.005 µM.

Consider `CCCOc1ccc(C=C2C(=O)NN(c3ccccc3)C2=O)c(OCCCCC(=O)O)c1C` [Example 2a52, 4-[1-[2-(4-Carboxy-butyloxy)-3-methyl-4-propoxy-phenyl]-methylidene]-1-phenyl-pyrazolidine-3,5-dione], for which the IC50 worked out at 0.0016 µM.

For `CCCOc1ccc(C=C2C(=O)NN(c3ccccc3)C2=O)c(OC[C@H](O)CC(=O)O)c1C` [Example 2a63, 4-[1-[2-((2R)-3-Carboxy-2-hydroxy-propoxy)-3-methyl-4-propoxy-phenyl]-methylidene]-1-phenyl-pyrazolidine-3,5-dione], the IC50 stood at 0.001 µM.

For the compound `CCCOc1ccc(C=C2C(=O)NN(c3ccccc3)C2=O)c(OC[C@@H](O)CC(=O)O)c1C` [Example 2a64, 4-[1-[2-((2S)-3-Carboxy-2-hydroxy-propoxy)-3-methyl-4-propoxy-phenyl]-methylidene]-1-phenyl-pyrazolidine-3,5-dione], the IC50 was determined as 0.0008 µM.

For `CCCOc1ccc(C=C2C(=O)NN(c3ccccc3)C2=O)c(OC[C@H](O)[C@@H](O)C(=O)O)c1C` [Example 2a71, 4-[1-[2-((2S,3R)-3-carboxy-2,3-dihydroxy-propoxy)-3-methyl-4-propoxy-phenyl]-methylidene]-1-phenyl-pyrazolidine-3,5-dione], the IC50 was found to be 0.003 µM.

On to `CCCOc1ccc(C=C2C(=O)NN(c3ccccn3)C2=O)c(C)c1C` [Example 4a2, 4-(2,3-Dimethyl-4-propoxy-benzylidene)-1-pyridin-2-yl-pyrazolidine-3,5-dione], for which the IC50 was found to be 0.14 µM.

For `CCCOc1ccc(C=C2C(=O)NN(c3ccc(F)cc3)C2=O)c(C)c1C` [Example 8a, 4-(2,3-Dimethyl-4-propoxy-benzylidene)-1-(4-fluoro-phenyl)-pyrazolidine-3,5-dione], the IC50 was 0.083 µM.

On to `CCCOc1ccc(C=C2C(=O)NNC2=O)c2c1CCCC2` [Example 12a3, 4-(4-Propoxy-5,6,7,8-tetrahydro-naphthalen-1-ylmethylene)-pyrazolidine-3,5-dione], for which the IC50 came to 0.055 µM.

Take `CCCOc1ccc(C=C2C(=O)NNC2=O)c(OCCC)c1C` [Example 12a9, 4-(3-Methyl-2,4-dipropoxy-benzylidene)-pyrazolidine-3,5-dione]: the IC50 worked out at 0.04 µM.

For `CCCOc1ccc(C=C2C(=O)NN(C(C)=O)C2=O)c(C)c1C` [Example 15, 1-Acetyl-4-[1-(2,3-dimethyl-4-propoxy-phenyl)-methylidene]-pyrazolidine-3,5-dione], the IC50 is 9.6 µM.
